Laboratory results as given in patent US20260256704A1, “STEALTH-STABILIZED LIPO-POLYAMINO ACIDS” (POLYPEPTIDE THERAPEUTIC SOLUTIONS, S.L., priority 2022, published 2026).

What was measured:
HEK293 cells = test: Luciferase assay for transfection efficiency in HEK293 cells; assay type: cell-based; details: at different concentrations (50-300 ng mRNA/well)
Procedure: (§1) HEK293 cells were cultured in DMEM high glucose with Glutamax (Gibco—Thermo Fisher #61965-059) supplemented with 10% of Fetal Bovine Serum (Hyclone #SV30160.03HI, provided by GE Healthcare Europe GmbH) and 1% penicillin/streptomycin. Transfections were carried out on 96-well plates containing 30000 cells/well in a final volume of 100 μl, and cells were incubated 24 hours at 37° C. and 5% CO2. After 24 h from cell seeding, the medium was removed and refreshed with 90 μl of complete medium. 10 μl of each LNPs formulation were added to the cells. After 24 hours cells were recovered and processed.
After 24 h post-incubation with the LNPs formulation, 100 μl of BrightGlo reagent (Promega #E2620) was added in each well following manufacturer instructions. After 5 minutes of incubation at room temperature luciferase activity was measured using VictorNivo (PerkinElmer). Data was represented as luminescence relative to the percentage of transfection relative to the positive control of transfection. […]

HeLa cells = test: Luciferase assay for transfection efficiency in HeLa cells; assay type: cell-based; details: LNPs containing the conjugate
Procedure: as §1, with “HeLa” for “HEK293”, “10000” for “30000”, “cells. In the case of positive control (Lipofectamine™ 2000 Transfection Reagent, Invitrogen™), manufacturer guidelines were followed.” for “cells.”
After 24 h post-incubation with the LNPs formulation, 100 μl of BrightGlo reagent (Promega #E2620) was added in each well following manufacturer instructions. After 5 minutes of incubation at room temperature luciferase activity was measured using VictorNivo (PerkinElmer). Data was represented as luminescence relative to the percentage of transfection relative to the positive control of transfection.
The transfection data is represented as % of the positive control Lipofectamine™ 2000 being the positive control 100% after 24 h of treatment and cell viability is compared to non-treated (NT) cells, being the ATP content readout of NT (non-treated) cells equal to 100%.

Substance | transfection efficiency relative to the commercial standard DMG-PEG (HEK293 cells) | transfection efficiency relative to the gold standard Lipofectamine (HeLa cells) [fold]
C14-PSar [C14PSar] | comparable transfection to DMG-PEG | –
C14-PGA(Diol) [Lipo-PAA1] | – | 2.5
